pEC50, pIC50: −log10 of the molar value. Like-named read-outs stand apart in the source and are kept apart here.
Assays:
TNFα = test: Cot Monocyte TNFα Cell Based Assay
Human Cot = Human Cot (Homo sapiens (Human), UniProt P41279); test: High Throughput Cot Biochemical Assay
[1] = Homo sapiens, Monocyte, read-out: EC50 TNF, LPS-stimulated human monocytes, TNFα
[2] = IC50 HTRF, Cot HTRF (TR-FRET) biochemical assay
[3] = Homo sapiens, Monocyte, read-out: EC50 TNF, LPS-stimulated human monocytes, TNFα TR-FRET
[4] = IC50 HTRF, Cot HTRF (TR-FRET KinEASE) biochemical assay, 400 μM ATP
[5] = read-out: EC50 TNF, LPS-stimulated human monocytes, TNFα
[6] = read-out: IC50 HTRF, Cot HTRF (TR-FRET) biochemical assay

Chain of Human Cot (P41279 30-397): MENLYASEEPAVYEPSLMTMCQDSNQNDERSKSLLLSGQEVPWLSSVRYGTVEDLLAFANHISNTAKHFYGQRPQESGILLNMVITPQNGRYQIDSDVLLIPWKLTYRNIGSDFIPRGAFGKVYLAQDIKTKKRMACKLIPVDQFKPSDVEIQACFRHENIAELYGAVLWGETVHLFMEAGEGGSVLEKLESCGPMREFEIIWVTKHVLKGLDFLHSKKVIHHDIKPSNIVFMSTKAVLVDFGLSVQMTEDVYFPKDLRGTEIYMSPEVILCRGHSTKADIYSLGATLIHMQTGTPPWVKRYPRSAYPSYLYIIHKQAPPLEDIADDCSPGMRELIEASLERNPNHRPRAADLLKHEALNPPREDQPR

Row | Structure (SMILES) | pEC50 (TNFα; [1]) | pIC50 (Human Cot; [2]) | also measured
1 | COc1nccc2c([C@H](Nc3cc(C#N)c4ncc(C#N)c(NCC(C)(C)C)c4c3)c3cn(C45CC(C4)C5)nn3)cccc12 [Example 807, (S)-6-(((1-(bicyclo[1.1.1]pentan-1-yl)-1H-1,2,3-triazol-4-yl)(1-methoxylsoquinolin-5-yl)methyl)amino)-4-(neopentylamino)quinoline-3,8-dicarbonitrile] |  |  | pEC50 (TNFα; read-out: EC50 TNF, LPS-stimulated human monocytes, TNFα TR-FRET): 7.51; pIC50 (Human Cot; read-out: IC50 HTRF, Cot HTRF (TR-FRET KinEASE) biochemical assay, 400 μM ATP): 8.52
2 | Cn1cnc2cccc([C@H](Nc3cc(Cl)c4ncc(C#N)c(NCC(C)(C)C)c4c3)c3cn(C4(C(F)(F)F)CC4)nn3)c21 [Example 483, (S)-8-chloro-6-(((1-methyl-1H-benzo[d]imidazol-7-yl)(1-(1-(trifluoromethyl)cyclopropyl)-1H-1,2,3-triazol-4-yl)methyl)amino)-4-(neopentylamino)quinoline-3-carbonitrile] | 6.97 | 8.15 | 
3 | [2H][C@](Nc1cc(Cl)c2ncc(C#N)c(NCC(C)(C)C)c2c1)(c1ccc(F)nc1)c1cn(CC(=O)O)nn1 [Example 85, (S)-2-(4-(((8-chloro-3-cyano-4-(neopentylamino)quinolin-6-yl)amino)(6-fluoropyridin-3-yl)methyl-d)-1H-1,2,3-triazol-1-yl)acetic acid] | < 6.00 | 8.40 | 
4 | Cc1nc(F)ccc1[C@H](Nc1cc(C#N)c2ncc(C#N)c(NCC(C)(C)C)c2c1)c1cn(CC(C)(F)F)nn1 [Example 836, (S)-6-(((1-(2,2-difluoropropyl)-1H-1,2,3-triazol-4-yl)(6-fluoro-2-methylpyridin-3-yl)methyl)amino)-4-(neopentylamino)quinoline-3,8-dicarbonitrile] |  |  | pEC50 (TNFα; [3]): 7.28; pIC50 (Human Cot; [4]): 8.40
5 | Cc1nc(F)ccc1[C@H](Nc1cc(C#N)c2ncc(C#N)c(NCC(C)(C)C(F)(F)F)c2c1)c1cn(C2(C)CC2)nn1 [Example 846, (S)-6-(((6-fluoro-2-methylpyridin-3-yl)(1-(1-methylcyclopropyl)-1H-1,2,3-triazol-4-yl)methyl)amino)-4-((3,3,3-trifluoro-2,2-dimethylpropyl)amino)quinoline-3,8-dicarbonitrile] |  |  | pEC50 (TNFα; [3]): 7.77; pIC50 (Human Cot; [4]): 8.70
6 | Cc1nc(F)ccc1[C@H](Nc1cc(Cl)c2ncc(C#N)c(NCC(C)(C)C)c2c1)c1cn(C2(C(=O)N3CCCC3)CC2)nn1 [Example 554, (S)-8-chloro-6-(((6-fluoro-2-methylpyridin-3-yl)(1-(1-(pyrrolidine-1-carbonyl)cyclopropyl)-1H-1,2,3-triazol-4-yl)methyl)amino)-4-(neopentylamino)quinoline-3-carbonitrile] | 6.82 | 8.30 | 
7 | Cn1c(=O)ccc2c([C@H](Nc3cc(C#N)c4ncc(C#N)c(NCC(C)(C)C)c4c3)c3cn(C4(C(F)(F)F)CC4)nn3)cccc21 [Example 890, (S)-6-(((1-methyl-2-oxo-1,2-dihydroquinolin-5-yl)(1-(1-(trifluoromethyl)cyclopropyl)-1H-1,2,3-triazol-4-yl)methyl)amino)-4-(neopentylamino)quinoline-3,8-dicarbonitrile] |  |  | pEC50 (TNFα; [3]): 7.17; pIC50 (Human Cot; [4]): 8.22
8 | Cc1nc(F)ccc1[C@H](Nc1cc(Cl)c2ncc(C#N)c(NCC(C)(C)C)c2c1)c1cn(C(C)(C)C)nn1 [Example 530, (S)-6-(((1-(tert-butyl)-1H-1,2,3-triazol-4-yl)(6-fluoro-2-methylpyridin-3-yl)methyl- )amino)-8-chloro-4-(neopentylamino)-quinoline-3-carbonitrile] |  |  | pEC50 (TNFα; [5]): 7.15; pIC50 (Human Cot; [6]): 8.52
9 | CC(C)(C)N1CCC(n2cc([C@@H](Nc3cc(Cl)c4ncc(C#N)c(Nc5ccc(F)c(Cl)c5)c4c3)c3ccc4scnc4c3)nn2)CC1 [Example 62, (S)-6-((benzo[d]thiazol-5-yl(1-(1-(tert-butyl)piperidin-4-yl)-1H-1,2,3-triazol-4-yl)methyl)amino)-8-chloro-4-((3-chloro-4-fluorophenyl)amino)quinoline-3-carbonitrile] | 6.67 | 8.00 | 
10 | CC(C)(C)CNc1c(C#N)cnc2c(F)cc(N[C@H](c3cn(C4(C(N)=O)CCC4)nn3)c3cccc4ncsc34)cc12 [Example 481, (S)-1-(4-(benzo[d]thiazol-7-yl((3-cyano-8-fluoro-4-(neopentylamino)quinolin-6-yl)-amino)methyl)-1H-1,2,3-triazol-1-yl)cyclobutane-1-carboxamide] | 6.41 | 8.22 | 
11 | N#Cc1cnc2c(Cl)cc(NC(c3ccccn3)c3ccccn3)cc2c1Nc1ccc(F)c(Cl)c1 [Example 377, 8-chloro-4-((3-chloro-4-fluoro-phenyl)amino)-6-((di(pyridin-2-yl)methyl)amino)quinoline-3-carbonitrile] | < 6.00 |  | pIC50 (Human Cot; [6]): 6.40
12 | CC(C)(C)CNc1c(C#N)cnc2c(C#N)cc(N[C@H](c3cn(C4(C(F)(F)F)CC4)nn3)c3cccc4c(=O)n(CC(F)F)ccc34)cc12 [Example 874, (S)-6-(((2-(2,2-difluoroethyl)-1-oxo-1,2-dihydroisoquinolin-5-yl)(1-(1-(trifluoromethyl)cyclopropyl)-1H-1,2,3-triazol-4-yl)methyl)amino)-4-(neopentylamino)quinoline-3,8-dicarbonitrile] |  |  | pEC50 (TNFα; [3]): 7.14; pIC50 (Human Cot; [4]): 8.52
13 | Cn1ccc2c([C@H](Nc3cc(Cl)c4ncc(C#N)c(NCC(C)(C)CO)c4c3)c3cn(C45CC(C4)C5)nn3)cccc2c1=O [Example 768, (S)-6-(((1-(bicyclo[1.1.1]pentan-1-yl)-1H-1,2,3-triazol-4-yl)(2-methyl-1-oxo-1,2-dihydroisoquinolin-5-yl)methyl)amino)-8-chloro-4-((3-hydroxy-2,2-dimethylpropyl)amino)quinoline-3-carbonitrile] | 7.07 | 8.22 | 
14 | CC(C)(C)CNc1c(C#N)cnc2c(Cl)cc(N[C@H](c3cn(C4CC4)nn3)c3cccc4ccncc34)cc12 [Example 504, (S)-8-chloro-6-(((1-cyclopropyl-1H-1,2,3-triazol-4-yl)(isoquinolin-8-yl)methyl)amino)-4-(neopentylamino)quinoline-3-carbonitrile] | 7.42 | 9.00 | 
15 | CC(C)(C)N1CCC(n2cc([C@@H](Nc3cc(Cl)c4ncc(C#N)c(Nc5ccc(F)c(Cl)c5)c4c3)c3cncs3)nn2)CC1 [Example 370] |  |  | pEC50 (TNFα; [5]): 6.63; pIC50 (Human Cot; [6]): 8.10
16 | CC(C)(C)CNc1c(C#N)cnc2c(Cl)cc(N[C@H](c3cn(C4(C(F)F)CC4)nn3)c3cccc4ncsc34)cc12 [Example 421, (S)-6-((benzo[d]thiazol-7-yl(1-(1-(difluoromethyl)cyclopropyl)-1H-1,2,3-triazol-4-yl)methyl)amino)-8-chloro-4-(neopentylamino)quinoline-3-carbonitrile] | 7.00 | 8.40 | 
17 | CCc1nc(F)ccc1[C@H](Nc1cc(C#N)c2ncc(C#N)c(NCC(C)(C)C)c2c1)c1cn(C2(C(F)(F)F)CC2)nn1 [Example 598, (S)-6-(((2-ethyl-6-fluoropyridin-3-yl)(1-(1-(trifluoromethyl)cyclopropyl)-1H-1,2,3-triazol-4-yl)methyl)amino)-4-(neopentylamino)-quinoline-3,8-dicarbonitrile] | 6.70 | 8.30 | 
18 | CC(C)(C)CNc1c(C#N)cnc2c(C#N)cc(N[C@H](c3cn(C4(c5ccncc5)CC4)nn3)c3cccc4ncsc34)cc12 [Example 464, (S)-6-((benzo[d]thiazol-7-yl(1-(1-(pyridin-4-yl)cyclopropyl)-1H-1,2,3-triazol-4-yl)methyl)amino)-4-(neopentylamino)-quinoline-3,8-dicarbonitrile] | 7.80 | 9.00 | 
19 | CC(C)(C)CNc1c(C#N)cnc2c(C#N)cc(N[C@H](c3cn(C4(C(F)(F)F)CC4)nn3)c3ccc(F)c4cnccc34)cc12 [Example 626] |  |  | pEC50 (TNFα; [5]): 7.46; pIC50 (Human Cot; [6]): 8.30
20 | Cc1nc(F)ccc1[C@H](Nc1cc(Cl)c2ncc(C#N)c(NCC(C)(C)C)c2c1)c1cn(C(CF)CF)nn1 [Example 762, (S)-8-chloro-6-(((1-(1,3-difluoropropan-2-yl)-1H-1,2,3-triazol-4-yl)(6-fluoro-2-methylpyridin-3-yl)methyl)amino)-4-(neopentylamino)quinoline-3-carbonitrile] | 7.30 | 8.52 | 
21 | [2H]c1c([C@@H](Nc2cc(C#N)c3ncc(C#N)c(NCC(C)(C)C)c3c2)c2ccc(F)nc2C)nnn1C1(C(F)(F)F)CC1 [Example 574, (S)-6-(((6-fluoro-2-methylpyridin-3-yl)(1-(1-(trifluoromethyl)cyclopropyl)-1H-1,2,3-triazol-4-yl-5-d)methyl)amino)-4-(neopentylamino)quinoline-3,8-dicarbonitrile] | 7.07 | 8.40 | 
22 | Cc1nc(F)ccc1[C@H](Nc1cc(Cl)c2ncc(C#N)c(NCC(C)(C)C)c2c1)c1cn(C(C)(C)C2CC2)nn1 [Example 758, (S)-8-chloro-6-(((1-(2-cyclopropylpropan-2-yl)-1H-1,2,3-triazol-4-yl)(6-fluoro-2-methylpyridin-3-yl)methyl)amino)-4-(neopentylamino)quinoline-3-carbonitrile] | 7.30 | 8.40 | 
23 | N#CCn1cc([C@@H](Nc2cc(Cl)c3ncc(C#N)c(Nc4ccc(F)c(Cl)c4)c3c2)c2cscn2)nn1 [Example 364, (S)-8-chloro-4-((3-chloro-4-fluorophenyl)amino)-6-(((1-(cyanomethyl)-1H-1,2,3-triazol-4-yl)(thiazol-4-yl)methyl)amino)-quinoline-3-carbonitrile] | 6.62 | 8.15 | 
24 | CC(C)(C)CNc1c(C#N)cnc2c(Cl)cc(N[C@@H](c3cccnc3)c3cn(C4COC4)nn3)cc12 [Example 168, (S)-8-chloro-4-(neopentylamino)-6-(((1-(oxetan-3-yl)-1H-1,2,3-triazol-4-yl)(pyridin-3-yl)methyl)amino)quinoline-3-carbonitrile] | 6.40 | 8.22 | 
